56 molecules from ChEMBL document CHEMBL3244391, “Antiviral activity of aliphatic nucleoside analogues: structure-function relationship” (1979) can be followed below.

The test system of the test is Vaccinia virus. Put plainly: Antiviral activity against Vaccinia virus infected in rabbit primary kidney cells assessed as inhibition of viral cytopathogenicity after 3 days. Type of test: functional, Orthopoxvirus vaccinia. (In general: Cytopathic effects are the visible damage that an infection or toxin causes in cultured cells.)

Take `OC[C@@H](O)Cn1cnc2c(O)ncnc21`: the MID was more than 400 µg/mL.

As for `Cc1cn(C[C@@H](O)CO)c(=O)[nH]c1=O`, the MID was more than 400 µg/mL.

With `Nc1ncnc2c1ncn2C[C@H](O)[C@H](O)CO`, the MID is 200 µg/mL.

As for `O=c1ccn(C[C@H](O)[C@H](O)CO)c(=O)[nH]1` (racemic), the MID is more than 400 µg/mL.

On to `COCC(Cn1cnc2c(N)ncnc21)OC` (racemic), for which the MID is more than 400 µg/mL.

As to `Nc1ncnc2c1ncn2CC(N)CO` (racemic), the MID was more than 400 µg/mL.

On to `Nc1ncnc2c1ncn2CCCO`, for which the MID stood at 300 µg/mL.

Consider `CCCCCCCCCCCCCCCC(=O)OCC(O)Cn1cnc2c(N)ncnc21` (racemic), for which the MID stood at 100 µg/mL.

For `Nc1c2ncn(CC(O)CO)c2nc[n+]1[O-]` (racemic), the MID is more than 400 µg/mL.

As for `Cc1cn(C[C@H](O)CO)c(=O)[nH]c1=O`, the MID was more than 400 µg/mL.

For the molecule `Cc1c[nH]c(=O)n(C[C@H](O)CO)c1=O`, the MID was more than 400 µg/mL.

As for `Nc1ncnc2c1ncn2C[C@@H](O)CO`, the MID is more than 400 µg/mL.

As to `Nc1nc(N)c2ncn(CC(O)CO)c2n1` (racemic), the MID was more than 400 µg/mL.

As for `O=c1ccn(CC(O)C(O)CO)c(=O)[nH]1` (racemic), the MID is more than 400 µg/mL.

Regarding `Nc1ncnc2c1ncn2C[C@H](O)[C@@H](O)CO`, the MID is more than 400 µg/mL.

Take `CCC(=O)OCC(Cn1cnc2c(N)ncnc21)OC(=O)CC` (racemic): the MID was more than 400 µg/mL.

`Nc1ccn(CC(O)CO)c(=O)n1` (racemic): the MID was more than 400 µg/mL.

Regarding `Nc1ncnc2c1ncn2[C@@H]1O[C@H](CO)[C@@H](O)[C@@H]1O` [VIDARABINE], the MID was 0.3 µg/mL.

In the case of `Nc1nc2c(ncn2CC(O)CO)c(=O)[nH]1` (racemic), the MID is more than 400 µg/mL.

As for `OCC(O)Cn1cnc2c(S)ncnc21` (racemic), the MID was more than 400 µg/mL.

Turning to `Nc1ncnc2c1ncn2CCO`, the MID is more than 400 µg/mL.

As to `Nc1ncnc2c1nc(S)n2CC(O)CO` (racemic), the MID was more than 400 µg/mL.

Take `CC(=O)OC[C@H](Cn1cnc2c(N)ncnc21)OC(C)=O`: the MID was more than 400 µg/mL.

Regarding `O=c1[nH]c(=O)n([C@H]2C[C@H](O)[C@@H](CO)O2)cc1I` [IDOXURIDINE], the MID amounted to 0.1 µg/mL.

As to `Nc1ncnc2c1ncn2CC(O)CO` (racemic), the MID stood at 40 µg/mL.

On to `Nc1ncnc2c1ncn2CC(O)C(O)CO` (racemic), for which the MID is 400 µg/mL.

Take `NCCn1cnc2c(N)ncnc21`: the MID was more than 400 µg/mL.

Take `CN(C)c1ncnc2c1ncn2CC(O)CO` (racemic): the MID was more than 400 µg/mL.

Turning to `Nc1ncnc2c1ncn2C[C@@H](O)[C@@H](O)CO`, the MID was more than 400 µg/mL.

As to `Nc1nc(O)c2c(ncn2CC(O)CO)n1` (racemic), the MID is more than 400 µg/mL.

On to `O=c1ccn(CC[C@H](O)CO)c(=O)[nH]1`, for which the MID is more than 400 µg/mL.

For `Nc1ncnc2c1ncn2C[C@H](O)CO` [(S)-DHPA], the MID is 10 µg/mL.

Consider `CC(C)(C)C(=O)OCC(O)Cn1cnc2c(N)ncnc21` (racemic), for which the MID turned out to be 300 µg/mL.

Regarding `NCC(O)Cn1cnc2c(N)ncnc21` (racemic), the MID was found to be 400 µg/mL.

For the molecule `Nc1ncnc2c1ncn2C(CO)CO`, the MID is more than 400 µg/mL.

Turning to `COC(CO)Cn1cnc2c(N)ncnc21` (racemic), the MID is more than 400 µg/mL.

As to `CC(C)(C)C(=O)OCC(Cn1cnc2c(N)ncnc21)OC(=O)C(C)(C)C` (racemic), the MID is 300 µg/mL.

Turning to `NCC(N)Cn1cnc2c(N)ncnc21` (racemic), the MID was more than 400 µg/mL.

As to `O=c1ccn(C[C@H](O)CO)c(=O)[nH]1`, the MID was more than 400 µg/mL.

Consider `CSc1nc(N)c2ncn(CC(O)CO)c2n1` (racemic), for which the MID worked out at 400 µg/mL.

With `CC(O)Cn1cnc2c(N)ncnc21` (racemic), the MID was more than 400 µg/mL.

Take `Nc1ncnc2c1nc(O)n2CC(O)CO` (racemic): the MID is more than 400 µg/mL.

Take `COCC(O)Cn1cnc2c(N)ncnc21` (racemic): the MID was more than 400 µg/mL.

Consider `C[C@@H](O)[C@@H](O)Cn1cnc2c(N)ncnc21` (racemic), for which the MID was found to be 150 µg/mL.

With `Nc1ncnc2c1nc(Br)n2CC(O)CO` (racemic), the MID was more than 200 µg/mL.

`O=c1ccn(CCC(O)CCO)c(=O)[nH]1` (racemic): the MID is more than 400 µg/mL.

Consider `Nc1ccn([C@@H]2O[C@H](CO)[C@@H](O)[C@@H]2O)c(=O)n1` [CYTARABINE], for which the MID was 0.02 µg/mL.

As for `Nc1ncnc2c1ncn2CCC(O)CO` (racemic), the MID stood at 100 µg/mL.

`Nc1ncnc2c1ncn2CCC(O)CCO` (racemic): the MID was more than 400 µg/mL.

In the case of `[N-]=[N+]=NCC(Cn1cnc2c(N)ncnc21)N=[N+]=[N-]` (racemic), the MID is 150 µg/mL.

In the case of `Nc1ncnc2c1ncn2CC[C@H](O)CO`, the MID came out at 200 µg/mL.

With `CNc1ncnc2c1ncn2CC(O)CO` (racemic), the MID is more than 400 µg/mL.

On to `O=c1ccn(C[C@@H](O)[C@H](O)CO)c(=O)[nH]1`, for which the MID was more than 400 µg/mL.

`O=c1cnn(CC(O)CO)c(=O)[nH]1` (racemic): the MID is more than 400 µg/mL.

As for `[N-]=[N+]=NCC(O)Cn1cnc2c(N)ncnc21` (racemic), the MID is more than 400 µg/mL.

Consider `Nc1ncnc2c1ncn2C[C@@H](O)[C@H](O)CO`, for which the MID was more than 400 µg/mL.
